Assay results as given in patent US20250122202A1, “EGFR INHIBITOR, PREPARATION METHOD THEREFOR AND USE THEREOF” (SHANDONG NEW TIME PHARMACEUTICAL CO., LTD., priority 2021, published 2025).
Read-outs that look alike come from different tables or passages of the source.

Columns and labels:
[1] = tested on: KC-1362 BaF3-EGFR D770-N771 ins NPG cells; assay: Anti-proliferative activity on KC-1362 BaF3-EGFR D770-N771 ins NPG cells; type: cell-based; conditions: Ba/F3 EGFR
[2] = molecular target: EGFR (D770-N771 ins NPG T790M) kinase (Homo sapiens (Human), UniProt P00533, INS770NPG/T790M); assay: In-vitro enzyme experiment 1 (HTRF kinase assay), EGFR D770-N771 ins NPG T790M; type: biochemical
Experimental: The specific experiment was as follows: • 1. Preparation of 1× concentration kinase buffer • 1 volume of 5 times concentration of an enzyme buffer diluted with 4 volumes of distilled water; 5 mM magnesium chloride; 1 mM DTT; and 1 mM MnCl2. • 2. Test method of activity of compound • a) a compound diluent was transferred to each well of an assay plate (784075, Greiner) using Echo 550; • b) the assay plate was sealed and centrifuged at 1,000 g for 1 min; • c) 2×EGFR (D770-N771 ins NPG T790M) was prepared in a 1× kinase buffer; • d) 5 μl of the 2×EGFR (D770-N771 ins NPG T790M) was added to a 384-well assay plate (784075, Greiner); • e) the assay plate was centrifuged at 1,000 g for 30 s and incubated at room temperature for 10 min; • f) 2× TK-substrate-biotin (2 μM) and ATP were added to the 1× kinase buffer and mixed; • g) the reaction was started after adding 5 μl of the TK-substrate-biotin (2 μM) and ATP mixture; • h) the assay plate was centrifuged at 1,000 g for 30 s; and the assay plate was sealed and incubated at room temperature for 40 min; • i) 4× Sa-XL 665 was prepared in an HTRF detection buffer; • j) 5 μl of the Sa-XL 665 and 5 μl of a TK-antibody-cryptate were added to each well of the assay plate; • k) the assay plate was centrifuged at 1,000 g for 30 s and incubated at room temperature for 1 h; and • l) fluorescence signals at 615 nm (cryptate) and 665 nm (XL665) were read on an Envision 2104 reader. • 3. Data analysis • 3.1 Calculation of ratio (665/615 nm) of each well • 3.2 Calculation of inhibition rate
[formula] • 3.3 Calculation of IC50 value of compound and drawing dose-effect curve of compound • IC50 values were calculated using GraphPad 6.0 by applying a non-linear regression curve (dose-effect relationship-variable slope) of the logarithm of the compound concentration versus the inhibition rate.
Y=lowest value+(highest value−lowest value)/(1+10^((Log IC50−X)×slope)) • X: logarithm of inhibitor concentration; and Y: inhibition rate. • 3.4 Double test report • 3.4.1 After one tester completed a report, another tester again checked the report to ensure that data analysis was correct. • 3.4.2 The data was exported from the software and manually analyzed. • 3.4.2.1 The rate was converted into the inhibition rate. All the IC50 values were first calculated with the inhibition rate using Prism GraphPad 6.0. • 3.4.2.2 Then the IC50 value was recalculated using the ratio to check the accuracy of the analysis. • 3.4.3 The number of all the compounds was ensured to be correct.

[3] = tested on: H1975 EGFR-L858R/T790M; assay: Cell proliferation inhibition experiment (CCK-8), H1975; type: cell-based; conditions: Homo sapiens, NCI-H1975, 72 h
Source text: (§1) Inhibition rate %=[(A0−AS)/(A0−AC)]×100%.

[4] = tested on: A549 EGFR-WT; assay: Cell proliferation inhibition experiment (CCK-8), A549; conditions: Homo sapiens, A549, 72 h, read-out: cell proliferation inhibition IC50 (μM) A549, 72 h, CCK-8
[5] = tested on: KC-0178:NCI-1975 EGFR-L858R/T790M/C797S; assay: Cell proliferation inhibition experiment (CCK-8), KC-0178; type: cell-based; conditions: Homo sapiens, 72 h
Source text: as §1

[6] = molecular target: EGFR D770-N771 ins NPG kinase (Homo sapiens (Human), UniProt P00533, INS770NPG); assay: In-vitro enzyme experiment 1 (HTRF kinase assay), D770-N771 ins NPG kinase; type: biochemical
[7] = tested on: PC-9 EGFR-Del19; assay: Cell proliferation inhibition experiment (CCK-8), PC-9; type: cell-based; conditions: Homo sapiens, 72 h
Source text: as §1

Chain of EGFR (D770-N771 ins NPG T790M) kinase (P00533 other isoform, or with tags, fused parts or gaps T790M/del 1-668/ins NPG behind 770 limits assumed): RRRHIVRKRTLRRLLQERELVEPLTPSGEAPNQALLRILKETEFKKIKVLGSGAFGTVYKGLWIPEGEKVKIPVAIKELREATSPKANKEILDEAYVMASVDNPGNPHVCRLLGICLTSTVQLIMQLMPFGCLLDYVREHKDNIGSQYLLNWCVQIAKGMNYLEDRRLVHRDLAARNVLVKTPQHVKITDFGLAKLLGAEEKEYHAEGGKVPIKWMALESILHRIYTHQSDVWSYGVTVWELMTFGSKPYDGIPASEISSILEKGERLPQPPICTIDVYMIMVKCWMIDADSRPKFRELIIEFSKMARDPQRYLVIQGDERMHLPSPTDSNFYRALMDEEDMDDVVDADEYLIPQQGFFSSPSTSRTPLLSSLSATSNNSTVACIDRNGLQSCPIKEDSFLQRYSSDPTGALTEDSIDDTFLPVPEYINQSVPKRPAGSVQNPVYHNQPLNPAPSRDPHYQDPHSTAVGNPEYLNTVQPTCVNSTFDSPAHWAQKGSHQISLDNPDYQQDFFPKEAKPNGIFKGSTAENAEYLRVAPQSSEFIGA
Chain of EGFR D770-N771 ins NPG kinase (P00533 other isoform, or with tags, fused parts or gaps del 1-668/ins NPG behind 770 limits assumed): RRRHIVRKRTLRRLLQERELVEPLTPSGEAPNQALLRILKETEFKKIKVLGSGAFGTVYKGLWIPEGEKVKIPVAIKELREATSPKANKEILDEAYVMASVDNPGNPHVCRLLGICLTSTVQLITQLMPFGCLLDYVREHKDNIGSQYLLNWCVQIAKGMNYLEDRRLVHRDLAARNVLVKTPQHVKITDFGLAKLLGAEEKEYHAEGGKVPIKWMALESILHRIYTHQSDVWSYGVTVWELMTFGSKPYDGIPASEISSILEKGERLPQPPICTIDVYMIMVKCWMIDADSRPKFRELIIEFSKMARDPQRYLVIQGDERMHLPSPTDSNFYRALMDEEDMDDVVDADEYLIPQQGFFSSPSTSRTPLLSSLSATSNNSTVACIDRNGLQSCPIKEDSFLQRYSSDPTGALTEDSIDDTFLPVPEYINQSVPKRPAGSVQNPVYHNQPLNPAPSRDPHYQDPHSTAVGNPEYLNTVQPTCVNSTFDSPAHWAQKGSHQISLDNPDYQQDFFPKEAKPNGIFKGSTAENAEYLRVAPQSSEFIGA

CN1CCN(c2ccc(Nc3nc(N[C@H]4CC[C@@H](CO)CC4)c4c(C(=O)c5ccc(F)cc5)c[nH]c4n3)cc2)CC1 [Example 60]
IC50 [1]: 70 nM
IC50 [2]: 8.8 nM
IC50 [3]: 0.1 to 1 µM
IC50 [4]: 0.1 to 1 µM
IC50 ([4]; Table 5 numeric): 0.23 µM
IC50 [5]: 1 to 2 µM
IC50 [6]: 2.82 nM
IC50 [7]: < 0.1 µM
